# Values joined by “and” are separate entries in the source; they are usually repeats but may differ in a detail not shown here. Equal entries are not always repeated.
# Tests used:
# [1] = tested on: EMG in B6 mice immunized with TAChR; test: Subcutaneous tolerization, prevention protocol, EMG symptoms (Example IV); type: in vivo, mouse
# Procedure: (§1) B6 mice (Jackson Laboratory, Bar Harbor, Me.) were injected s.c. with 100 μl of PBS containing increasing amounts of a pool of the same amount in weight of each of the three epitope peptides Tα150-169, Tα180-200 and Tα360-378 (‘peptide pool’), or 200 μg of Tα150-169 alone, or 100 μl of PBS containing 0.1% Triton X-100 and 10 μg of solubilized TAChR. Two different treatment schedules were used, referred to as prevention and post-priming protocols. In the prevention protocol, the peptides or solubilized TAChR were administered twice per week for 14 weeks, starting 2 weeks before the beginning of the immunization with TAChR. In the post-priming protocol, peptides or solubilized TAChR were administered twice per week for […], starting 8 weeks after the beginning of the TAChR immunization. Control mice received 100 μl of peptide-free PBS, following the same schedules.
# (§2) Immunization 8-10 week old mice were immunized by s.c. injections, along the back and at the base of the tail, of TAChR (a total of 50 μg in 100 μl of PBS for each immunization) emulsified in an equal volume of CFA for the first injection, and IFA for the following two boosts. The mice were injected for a total of three times at 3-4 week intervals. At the end of the observation period, the mice received a third boost, and were sacrificed 5-7 days later. Control mice were injected with clean PBS in the appropriate adjuvant.
# (§3) Evaluation of the symptoms of EMG The EMG symptoms were quantified using a forced exercise test sensitized by i.p. injection of a minute amount of pancuronium bromide (0.03 mg/kg) just before the test (Karachunski et al., 1995). The mouse hangs from a grid suspended above a soft padding, and the time it takes the mouse to fall three times (‘holding time’) was measured. The test is parametric, and gives a quantitative assessment of the mouse weakness. The myasthenic nature of the weakness was verified by injecting i.p. edrophonium chloride (Reversol, Organon, West Orange, N.J.), which is a cholinesterase inhibitor. […] The mice were tested without knowledge of their treatment.
# The holding time of normal mice was 10.4±2.1 minutes (n=99). Mice with holding times of 8 minutes or longer were considered normal. Mice with holding times less than 6.2 minutes (the holding time of normal mice minus two SD) were considered to have fully developed EMG. Holding times of 6.2-8 minutes were considered to potentially indicate initial EMG. Normal or sham-immunized mice had occasionally holding times of 6.2-8 minutes, but never less than 6.2 minutes. Paralyzed mice and mice that died of respiratory paralysis are indicated as having holding time of 0 minutes.
# [2] = tested on: established EMG in B6 mice; test: Subcutaneous treatment, post-priming protocol, established EMG (Example IV); type: in vivo, mouse; conditions: at 44 weeks, s.c. post-priming protocol
# Procedure: as §1, §2
# as §3, with “treatment. […]” for “treatment.”
# serum anti-TAChR Ab = test: Anti-TAChR IgG and IgG1 radioimmunoprecipitation assay (Example IV); type: in vivo, mouse
# Procedure: Anti-TAChR Ab assay. Sera was obtained from each mouse after each clinical testing and at the end of the observation period (12 weeks after beginning of the TAChR immunization). The serum concentration of anti-TAChR IgG and IgGI was determined by radioimmunoprecipitation assay, using TAChR solubilized in Triton X-100 and labeled by the binding of ^125I-α-BTX (Bellone et al., 1991a). As a secondary Ab, either rabbit anti-mouse IgG produced, or goat anti-mouse IgG1 (Sigma, St. Louis, Mo.), was used. The anti-TAChR Ab concentration is expressed as μM precipitated ^125I-α-BTX binding sites.
# Two types of experiments were carried out. In one of them the total anti-TAChR Ab in the sera of individual mice, obtained 8, 10 and 12 weeks after the first TAChR immunization, was determined. In the other, the anti-TAChR IgG1 concentration was determined, as well as the total anti-TAChR IgG concentration, in sera obtained at the end of the observation period. For this second assay pooled sera from five mice that had received identical treatments was used.
# spleen CD4+ T-cells = test: Lymphocyte proliferation assay, spleen CD4+ T-cells (Example IV); type: cell-based, mouse
# Procedure: Lymphocyte proliferation assay. Five to seven days after the last TAChR immunization, CD4^+ T-cells (Bellone et al., 1991a) were purified from the pooled spleens of three to four mice that had received identical treatments. Irradiated (3000 rad) spleen cells from non-immunized mice were diluted as needed in RPMI-1640 (Gibco, Grand Island, N.Y.) supplemented with 10% heat inactivated fetal calf serum (Gibco), 50 μM 2-mercapto-ethanol, 1 mM L-glutamine, 10 mM HEPES, 1 mM sodium pyruvate, 100 U/ml penicillin and 100 μg/ml streptomycin (culture medium) and used as APC. The spleen CD4^+ T-cells (1×10^6/ml in culture medium, 100×1/well) were seeded in triplicate in 96 flat-bottom well plates containing 100×1 of 5×10^6/ml APC. One of the following Ag was added: 10 μg/ml PHA (Sigma); 5 or 10 μg/ml TAChR; 5 or 10 μg/ml of the individual epitope peptides. The concentrations of TAChR and epitope peptides are in the saturating range of the dose dependence curve (Bellone et al., 1991a), and yielded consistent results. Controls were triplicate wells containing CD4^+ cells and APC without any Ag, or with the control peptide (10 μg/ml). After 4 days the cells were labeled for 16 hours with ^3H-thymidine (1 μCi per well, specific activity 6.7 Ci/mmol, Dupont, Boston, Mass.) and harvested (Titertek, Skatron, Sterling, Va.). The ^3H-thymidine incorporation was measured by liquid scintillation, and represented the results as stimulation indexes (S.I.: the ratio between the cpm obtained in the presence of a given stimulus, and the average cpm obtained for non-stimulated control cultures).
# [3] = s.c. 200 μg/injection, second experiment
# [4] = s.c. 200 μg, pooled sera of five mice
substance,measurement,setting,value
"peptide Tα150-169: synthetic peptide corresponding to residues 150-169 of the TAChR α subunit (TYDGTKVSISPESDRPDLST; UniProt P02710 174-193, looked up, fragment)",mice with EMG at 8 weeks,[1]; [3],One mouse
same,prevention of EMG,[1]; [3],prevented EMG effectively
same,holding times compared with sham-tolerized groups,[1]; s.c. prevention protocol,significantly longer holding times
same,mice with holding times of 6.2 or less,[2],6%
same,reduction of anti-TAChR IgG1,"serum anti-TAChR Ab; 200 μg, p<0.008",very modest reduction
same,anti-TAChR Ab concentrations compared with sham-treated groups,"serum anti-TAChR Ab; at 12 weeks, s.c. prevention protocol",significantly and substantially lower
same,IgG1 anti-TAChR,serum anti-TAChR Ab; [4],0.22 ± 0.005 µM and 0.27 ± 0.01 µM
same,Total IgG anti-TAChR,serum anti-TAChR Ab; [4],0.47 ± 0.01 µM and 0.28 ± 0.015 µM
same,response of CD4+ cells from sham-tolerized mice to the peptide,"spleen CD4+ T-cells; TAChR-immunized B6 mice, 5 or 10 μg/ml",responded consistently
same,response to Tα150-169 of tolerized mice,spleen CD4+ T-cells; s.c. prevention protocol,never responded

# Source: patent US6759385B1, “Methods to treat undesirable immune responses” (Regents of the University of Minnesota, priority 1997, dated 2004)
